Measurements as given in patent publication US4645769A, “1-oxa-1-dethia-cephalosporin compounds and antibacterial agent comprising the same” (Merck & Co., Inc., priority 1985, dated 1987).
Counter-ions that a name gives are not always drawn. Blank lines part the entries; values can stand above or below the compound they belong to.

What was measured:
[1] = tested on: Esherichia coli NIHJ JC-2; assay: Minimum Inhibitory Concentration (MIC), antibacterial spectrum in vitro; type: cell-based
[2] = tested on: Pseudomonas aeruginosa E-2; assay: as above; type: cell-based; details: E2; Pseudomonas aeruginosa E-2; read-out: Minimum Inhibitory Concentration (MIC)
[3] = tested on: Pseudomonas aeruginosa MB-3833; assay: as above; type: cell-based; details: MB3833; Pseudomonas aeruginosa MB-3833; read-out: Minimum Inhibitory Concentration (MIC)
[4] = tested on: Klebsiella pneumoniae PCI 602; assay: as above; type: cell-based; details: PCI602; Klebsiella pneumoniae PCI 602; read-out: Minimum Inhibitory Concentration (MIC)
[5] = tested on: Streptococcus faecalis ATCC 8043; assay: as above; type: cell-based; details: Enterococcus faecalis, ATCC8043; Streptococcus faecalis ATCC 8043; read-out: Minimum Inhibitory Concentration (MIC)
[6] = tested on: Citrobacter freundii GN-346; assay: as above; type: cell-based; details: GN346; Citrobacter freundii GN-346; read-out: Minimum Inhibitory Concentration (MIC)
[7] = tested on: Salmonella typhimurium LT-2; assay: as above; type: cell-based; details: Salmonella enterica; Salmonella typhimurium LT-2; read-out: Minimum Inhibitory Concentration (MIC)
Streptococcus faecalis = assay: Antibacterial activity against Streptococcus faecalis (statement in words); type: cell-based
[8] = tested on: Staphylococcus aureus 209 P JC-1; assay: Minimum Inhibitory Concentration (MIC), antibacterial spectrum in vitro; type: cell-based; details: 209PJC1; Staphylococcus aureus 209 P JC-1; read-out: Minimum Inhibitory Concentration (MIC)
Proteus morganii 1510 = assay: as above; type: cell-based; details: Morganella morganii; Proteus morganii 1510; read-out: Minimum Inhibitory Concentration (MIC)
Enterobacter cloacae P99 = assay: as above; type: cell-based; details: P99, read-out: Minimum Inhibitory Concentration (MIC)
[9] = tested on: Pseudomonas aeruginosa RPL-11; assay: as above; type: cell-based; details: RPL11; Pseudomonas aeruginosa RPL-11; read-out: Minimum Inhibitory Concentration (MIC)
Pseudomonas aeruginosa = assay: Antibacterial activity against Pseudomonas aeruginosa (from Table 1); type: cell-based; details: in words
[10] = Concentration in Blood Serum after subcutaneous dosing (bioassay using Escherichia coli); type: in vivo; details: mouse, sc, 25 mg/Kg subcutaneously, mice; for concentration at 0.5 h: 1/2 hour; for concentration at 0.25 h: 1/4 hour; for concentration at 5 min: 1/12 hour
Experimental: The concentration of the compound in the serum was determined by bioassay using Escherichia coli as assay microorganism.

Esherichia coli TEM DC-2 = assay: Minimum Inhibitory Concentration (MIC), antibacterial spectrum in vitro; type: cell-based; details: read-out: Minimum Inhibitory Concentration (MIC)
[11] = tested on: Staphylococus aureus (Smith I); assay: Efficacy in Mice Infected with Staphylococus aureus (Smith I); type: in vivo; details: Staphylococcus aureus, sc, 168 h, St. aureus (Smith I) intraperitoneal infection, single subcutaneous dose one hour after infection, 7 days
From the text: (§1) A systemic infection was produced by intraperitoneal injection of the appropriate pathogen to mice (five male mice in each group, average body weight 20 g), and the mice were received single subcutaneous dose of the compound one hour after the infection.

[12] = tested on: Pseudomonas aeruginosa (GN 10362); assay: Efficacy in Mice Infected with Pseudomonas aeruginosa (GN 10362); type: in vivo; details: GN10362, sc, 168 h, Ps. aeruginosa (GN 10362) intraperitoneal infection, mice, single subcutaneous dose one hour after infection, 7 days, read-out: ED 50
From the text: as §1

SMILES: CC(C)(ON=C(C(=O)NC1C(=O)N2C(C(=O)[O-])=C(CSc3cc[n+](CC(F)(F)F)cc3)COC12)c1csc(N)n1)C(=O)O [Compound 16, (6R,7R)-7-((Z)-2-(2-Aminothiazole-4-yl)-2-(2-carboxyprop-2-oxyimino)acetamide)-3-(1-(2,2,2-trifluoroethyl)-pyridinium-4-ylthiomethyl)-1-oxa-1-dethiaceph-3-em-4-carboxylate (Sodium Salt)]
MIC (Enterobacter cloacae P99): 128 µg/mL | MIC [1]: 0.1 µg/mL | MIC [2]: 1.56 µg/mL | MIC [3]: 1.56 µg/mL | MIC [4]: 0.1 µg/mL | MIC [5]: > 100 µg/mL | MIC [6]: 25 µg/mL | MIC [7]: < 0.025 µg/mL | MIC [9]: 32 µg/mL | effectiveness against Pseudomonas aeruginosa (Pseudomonas aeruginosa): effective against Pseudomonas aeruginosa | MIC [8]: 3.13 µg/mL | concentration at 0.5 h [10]: 11000 ng/mL | concentration at 0.25 h [10]: 20000 ng/mL | concentration at 5 min [10]: 16000 ng/mL | concentration at 1 h [10]: 2400 ng/mL | MIC (Esherichia coli TEM DC-2): 0.03 µg/mL | MIC (Proteus morganii 1510): 6.25 µg/mL

SMILES: CC1OC2C(NC(=O)C(=NOC(C)(C)C(=O)O)c3csc(N)n3)C(=O)N2C(C(=O)[O-])=C1CSc1cc[n+](C)cc1 [Compound 1, (6R,7R)-7-((Z)-2-(2-Aminothiazole-4-yl)-2-(2-carboxyprop-2-oxyimino)acetamide)-(2S)-2-methyl-3-(1-methyl-pyridinium-4-ylthiomethyl)-1-oxa-1-oxa-1-dethiaceph-3-em-4-carboxylate (Sodium Salt)]
MIC (Enterobacter cloacae P99): 1 µg/mL | MIC [1]: 0.2 µg/mL | MIC [2]: 3.13 µg/mL | MIC [3]: 3.13 µg/mL | ED50 [11]: 0.028 mg/kg | MIC [4]: 0.2 µg/mL | ED50 [12]: 0.16 mg/kg | MIC [5]: 50 µg/mL | MIC [6]: 0.78 µg/mL | MIC [7]: 0.05 µg/mL | MIC [9]: 4 µg/mL | effectiveness against Pseudomonas aeruginosa (Pseudomonas aeruginosa): effective against Pseudomonas aeruginosa | MIC [8]: 1.56 µg/mL | concentration at 0.5 h [10]: 10600 ng/mL | concentration at 0.25 h [10]: 18500 ng/mL | concentration at 5 min [10]: 14500 ng/mL | concentration at 1 h [10]: 2200 ng/mL | MIC (Esherichia coli TEM DC-2): 0.5 µg/mL | MIC (Proteus morganii 1510): 0.39 µg/mL

SMILES: CCON=C(C(=O)NC1C(=O)N2C(C(=O)[O-])=C(CSc3cc[n+](CC(=O)O)cc3)C(C)OC12)c1csc(N)n1 [Compound 8, (6R,7R)-7(Z)-2-(2-Aminothiazole-4-yl)-2-ethoxyiminoacetamide)-(2S)-2-methyl-3-(1-carboxymethylpyridinium-4-ylthiomethyl)-1-oxa-1-dethiaceph-3-em-4-carboxylate (Sodium Salt)]
MIC [1]: 0.1 µg/mL | MIC [2]: 12.5 µg/mL | MIC [3]: 12.5 µg/mL | MIC [4]: 0.05 µg/mL | MIC [5]: 6.25 µg/mL | MIC [6]: 6.25 µg/mL | MIC [7]: 0.05 µg/mL | effectiveness against Streptococcus faecalis (Streptococcus faecalis): effective against Streptococcus faecalis | MIC [8]: 0.39 µg/mL | MIC (Proteus morganii 1510): 0.78 µg/mL

The next lines start with results.

MIC [1]: < 0.025 µg/mL | MIC [2]: 50 µg/mL | MIC [3]: 25 µg/mL | MIC [4]: 0.025 µg/mL | MIC [5]: 0.78 µg/mL | MIC [6]: 12.5 µg/mL | MIC [7]: < 0.025 µg/mL | MIC [8]: 0.39 µg/mL | MIC (Proteus morganii 1510): 6.2 µg/mL
SMILES: CON=C(C(=O)NC1C(=O)N2C(C(=O)[O-])=C(CSc3cc[n+](CC(=O)O)cc3)COC12)c1csc(N)n1 [Compound 11, (6R,7R)-7-((Z)-2-(2-Aminothiazole-4-yl)-2-methoxyiminoacetamide)-3-(1-carboxymethylpyridinium-4-yl-thiomethyl)-1-oxa-1-dethiaceph-3-em-4-carboxylate (Sodium Salt)]
effectiveness against Streptococcus faecalis (Streptococcus faecalis): effective against Streptococcus faecalis

MIC [1]: < 0.025 µg/mL | MIC [2]: 25 µg/mL | MIC [3]: 12.5 µg/mL | MIC [4]: 0.025 µg/mL | MIC [5]: 6.25 µg/mL | MIC [6]: 12.5 µg/mL | MIC [7]: < 0.025 µg/mL | MIC [8]: 0.39 µg/mL | MIC (Proteus morganii 1510): 12.5 µg/mL
SMILES: CCON=C(C(=O)NC1C(=O)N2C(C(=O)[O-])=C(CSc3cc[n+](CC(=O)O)cc3)COC12)c1csc(N)n1 [Compound 12, (6R,7R)-7-((Z)-2-(2-Aminothiazole-4-yl)-2-ethoxyiminoacetamido)-3-(1-carboxymethylpyridinium-4-ylthiomethyl)-1-oxa-1-dethiaceph-3-em-4-carboxylate (Sodium Salt)]
effectiveness against Streptococcus faecalis (Streptococcus faecalis): effective against Streptococcus faecalis
